Laboratory results reported in ChEMBL document CHEMBL2321780, “Fluorinated quinazolinones as potential radiotracers for imaging kinesin spindle protein expression” (2013).
Activity calls are given as the source filed them. The rule behind the calls is not given here.

Experiments:
[1] = tested on: DU-145; experiment: Cytotoxicity against human DU145 cells assessed as inhibition of KSP-mediated cell cycle progression after 44 hrs by MTT assay; assay type: functional; details: DU-145, 44 h
[2] = tested on: MCF7; experiment: Cytotoxicity against human MCF7 cells assessed as inhibition of KSP-mediated cell cycle progression after 44 hrs by MTT assay; assay type: functional; details: MCF7, 44 h
[3] = tested on: SK-OV-3; experiment: Nonspecific cytotoxicity against human SKOV3 cells after 44 hrs by MTT assay; assay type: functional; details: SK-OV-3, 44 h
[4] = tested on: MCF7; experiment: Nonspecific cytotoxicity against human MCF7 cells after 44 hrs by MTT assay; assay type: functional; details: MCF7, 44 h
[5] = tested on: PC-3; experiment: Nonspecific cytotoxicity against human PC3 cells after 44 hrs by MTT assay; assay type: functional; details: PC-3, 44 h
[6] = tested on: PC-3; experiment: Cytotoxicity against human PC3 cells assessed as inhibition of KSP-mediated cell cycle progression after 44 hrs by MTT assay; assay type: functional; details: PC-3, 44 h
[7] = tested on: SK-OV-3; experiment: Cytotoxicity against human SKOV3 cells assessed as inhibition of KSP-mediated cell cycle progression after 44 hrs by MTT assay; assay type: functional; details: SK-OV-3, 44 h
[8] = tested on: SK-OV-3; experiment: Cell cycle arrest in human SKOV3 cells assessed as monoaster phenotype at 100 nM after 22 hrs by confocal microscopic analysis; assay type: functional, cell-based
[9] = tested on: DU-145; experiment: Nonspecific cytotoxicity against human DU145 cells after 44 hrs by MTT assay; assay type: functional; details: DU-145, 44 h
[10] = target: Centromere-associated protein E (Homo sapiens) (UniProt Q02224); experiment: Inhibition of CENP-E (unknown origin)-mediated ATP hydrolysis assessed as residual activity at 10 uM after 10 to 20 mins by spectrophotometric analysis
Sequence of Centromere-associated protein E (Homo sapiens) (Q02224 whole entry): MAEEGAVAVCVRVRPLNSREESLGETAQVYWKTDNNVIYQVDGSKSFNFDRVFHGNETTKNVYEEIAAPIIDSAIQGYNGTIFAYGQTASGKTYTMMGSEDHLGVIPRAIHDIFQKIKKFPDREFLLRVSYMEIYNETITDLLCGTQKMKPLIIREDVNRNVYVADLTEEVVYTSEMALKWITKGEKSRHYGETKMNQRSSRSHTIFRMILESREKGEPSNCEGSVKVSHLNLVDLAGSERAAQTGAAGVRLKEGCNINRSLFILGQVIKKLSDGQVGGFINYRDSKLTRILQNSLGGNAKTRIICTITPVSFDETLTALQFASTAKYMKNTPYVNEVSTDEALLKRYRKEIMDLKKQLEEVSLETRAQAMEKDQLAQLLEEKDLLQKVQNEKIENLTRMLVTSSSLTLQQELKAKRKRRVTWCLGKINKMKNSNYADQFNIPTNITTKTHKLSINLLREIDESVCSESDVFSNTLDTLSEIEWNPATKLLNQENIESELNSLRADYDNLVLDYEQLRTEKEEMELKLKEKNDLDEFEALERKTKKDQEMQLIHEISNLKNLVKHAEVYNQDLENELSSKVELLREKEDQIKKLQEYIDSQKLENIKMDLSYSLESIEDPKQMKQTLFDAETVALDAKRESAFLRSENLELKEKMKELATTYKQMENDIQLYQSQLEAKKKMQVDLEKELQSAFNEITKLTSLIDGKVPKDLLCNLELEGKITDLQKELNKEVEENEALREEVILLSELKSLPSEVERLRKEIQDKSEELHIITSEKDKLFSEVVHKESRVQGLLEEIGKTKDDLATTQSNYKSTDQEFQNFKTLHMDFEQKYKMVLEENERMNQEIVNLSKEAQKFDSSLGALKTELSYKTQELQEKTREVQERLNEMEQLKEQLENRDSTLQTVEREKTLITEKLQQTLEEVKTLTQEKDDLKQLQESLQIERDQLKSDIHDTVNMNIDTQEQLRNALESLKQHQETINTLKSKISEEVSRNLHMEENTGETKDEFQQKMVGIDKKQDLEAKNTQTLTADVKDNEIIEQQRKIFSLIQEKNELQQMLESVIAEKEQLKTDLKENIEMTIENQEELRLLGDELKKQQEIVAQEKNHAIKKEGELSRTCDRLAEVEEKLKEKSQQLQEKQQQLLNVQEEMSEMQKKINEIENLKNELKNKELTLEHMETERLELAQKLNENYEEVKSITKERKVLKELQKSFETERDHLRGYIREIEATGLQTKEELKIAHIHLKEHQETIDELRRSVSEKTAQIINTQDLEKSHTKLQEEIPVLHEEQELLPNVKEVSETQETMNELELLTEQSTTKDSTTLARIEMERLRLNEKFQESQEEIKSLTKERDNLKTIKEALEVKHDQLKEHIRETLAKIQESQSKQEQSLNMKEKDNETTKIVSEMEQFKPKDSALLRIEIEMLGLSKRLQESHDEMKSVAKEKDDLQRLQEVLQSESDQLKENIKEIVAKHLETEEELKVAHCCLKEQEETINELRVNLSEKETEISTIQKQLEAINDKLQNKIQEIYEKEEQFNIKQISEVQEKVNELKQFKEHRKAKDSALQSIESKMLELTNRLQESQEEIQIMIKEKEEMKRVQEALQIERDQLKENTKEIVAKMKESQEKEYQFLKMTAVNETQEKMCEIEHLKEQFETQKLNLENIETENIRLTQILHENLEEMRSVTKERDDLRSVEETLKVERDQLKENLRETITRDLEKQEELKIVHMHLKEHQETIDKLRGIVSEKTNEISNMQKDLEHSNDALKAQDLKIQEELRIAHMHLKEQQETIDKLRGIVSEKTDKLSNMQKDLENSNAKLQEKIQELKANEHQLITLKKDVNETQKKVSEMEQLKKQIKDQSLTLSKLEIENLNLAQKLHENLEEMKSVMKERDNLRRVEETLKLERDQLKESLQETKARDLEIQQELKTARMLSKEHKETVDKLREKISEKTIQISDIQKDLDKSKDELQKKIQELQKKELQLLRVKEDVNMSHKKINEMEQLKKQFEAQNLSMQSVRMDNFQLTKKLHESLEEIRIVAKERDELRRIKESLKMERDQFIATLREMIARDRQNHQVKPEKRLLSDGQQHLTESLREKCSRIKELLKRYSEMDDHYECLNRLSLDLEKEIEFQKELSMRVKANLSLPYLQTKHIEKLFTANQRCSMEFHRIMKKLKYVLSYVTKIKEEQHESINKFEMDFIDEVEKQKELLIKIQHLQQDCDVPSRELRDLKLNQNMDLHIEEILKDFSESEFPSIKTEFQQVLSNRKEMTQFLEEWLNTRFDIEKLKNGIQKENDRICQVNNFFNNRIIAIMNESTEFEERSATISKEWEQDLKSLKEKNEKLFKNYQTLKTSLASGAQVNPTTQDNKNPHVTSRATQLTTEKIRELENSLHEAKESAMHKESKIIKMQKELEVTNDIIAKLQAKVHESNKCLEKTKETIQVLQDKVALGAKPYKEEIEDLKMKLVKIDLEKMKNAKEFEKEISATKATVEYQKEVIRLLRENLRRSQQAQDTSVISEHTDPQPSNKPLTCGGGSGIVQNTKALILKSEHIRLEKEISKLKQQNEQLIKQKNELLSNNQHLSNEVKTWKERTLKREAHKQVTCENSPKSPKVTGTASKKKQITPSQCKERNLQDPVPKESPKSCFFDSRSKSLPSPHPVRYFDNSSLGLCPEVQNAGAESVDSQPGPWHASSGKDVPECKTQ

[11] = target: T1, Kinesin-like protein KIFC3 (Homo sapiens) (UniProt Q9BVG8); experiment: Inhibition of KIFC3 (unknown origin)-mediated ATP hydrolysis assessed as residual activity at 10 uM after 10 to 20 mins by spectrophotometric analysis
T1 sequence (whole entry): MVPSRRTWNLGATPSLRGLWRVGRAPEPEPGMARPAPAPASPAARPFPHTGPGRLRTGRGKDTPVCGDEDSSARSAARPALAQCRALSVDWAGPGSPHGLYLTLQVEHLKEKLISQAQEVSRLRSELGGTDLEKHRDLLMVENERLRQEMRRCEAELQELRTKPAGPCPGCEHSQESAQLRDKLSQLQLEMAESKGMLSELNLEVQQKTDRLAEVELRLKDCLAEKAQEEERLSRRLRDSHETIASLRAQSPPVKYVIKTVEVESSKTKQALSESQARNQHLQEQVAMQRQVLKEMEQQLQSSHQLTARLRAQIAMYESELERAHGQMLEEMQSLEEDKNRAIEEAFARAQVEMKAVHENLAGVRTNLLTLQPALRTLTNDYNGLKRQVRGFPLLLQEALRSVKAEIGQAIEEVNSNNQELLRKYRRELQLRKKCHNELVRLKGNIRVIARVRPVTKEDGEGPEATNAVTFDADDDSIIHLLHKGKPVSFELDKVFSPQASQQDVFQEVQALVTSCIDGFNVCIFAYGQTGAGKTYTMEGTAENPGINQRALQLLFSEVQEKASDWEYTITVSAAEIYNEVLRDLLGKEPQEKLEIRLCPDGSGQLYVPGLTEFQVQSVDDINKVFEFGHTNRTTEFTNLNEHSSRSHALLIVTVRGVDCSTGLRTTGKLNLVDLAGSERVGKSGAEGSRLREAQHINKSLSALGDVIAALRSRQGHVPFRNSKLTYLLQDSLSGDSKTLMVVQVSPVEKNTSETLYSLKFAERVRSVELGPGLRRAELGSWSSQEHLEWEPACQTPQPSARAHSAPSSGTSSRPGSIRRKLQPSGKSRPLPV

[12] = target: T2, Kinesin-like protein KIF2C (Homo sapiens) (UniProt Q99661); experiment: Inhibition of MCAK (unknown origin)-mediated ATP hydrolysis assessed as residual activity at 10 uM after 10 to 20 mins by spectrophotometric analysis
T2 sequence (whole entry): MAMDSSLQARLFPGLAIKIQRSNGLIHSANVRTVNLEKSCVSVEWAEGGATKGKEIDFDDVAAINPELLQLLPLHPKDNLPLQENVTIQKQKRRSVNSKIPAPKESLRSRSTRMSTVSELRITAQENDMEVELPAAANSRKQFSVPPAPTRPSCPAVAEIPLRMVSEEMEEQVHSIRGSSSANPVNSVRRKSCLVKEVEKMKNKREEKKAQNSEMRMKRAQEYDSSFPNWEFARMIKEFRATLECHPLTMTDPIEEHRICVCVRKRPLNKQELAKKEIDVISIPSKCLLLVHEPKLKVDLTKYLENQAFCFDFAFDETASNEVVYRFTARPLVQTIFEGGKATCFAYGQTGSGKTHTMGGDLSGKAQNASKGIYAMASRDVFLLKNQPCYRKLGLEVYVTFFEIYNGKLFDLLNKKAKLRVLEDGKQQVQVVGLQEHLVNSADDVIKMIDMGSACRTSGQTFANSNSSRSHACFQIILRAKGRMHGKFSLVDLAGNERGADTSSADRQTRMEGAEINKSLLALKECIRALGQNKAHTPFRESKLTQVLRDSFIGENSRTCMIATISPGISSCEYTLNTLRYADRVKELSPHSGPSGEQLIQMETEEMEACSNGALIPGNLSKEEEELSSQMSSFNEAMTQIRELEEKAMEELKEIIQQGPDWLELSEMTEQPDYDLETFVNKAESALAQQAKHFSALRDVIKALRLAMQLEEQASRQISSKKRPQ

[13] = target: T3, Kinesin-1 heavy chain (Homo sapiens) (UniProt P33176); experiment: Inhibition of KNH (unknown origin)-mediated ATP hydrolysis assessed as residual activity at 10 uM after 10 to 20 mins by spectrophotometric analysis
T3 sequence (whole entry): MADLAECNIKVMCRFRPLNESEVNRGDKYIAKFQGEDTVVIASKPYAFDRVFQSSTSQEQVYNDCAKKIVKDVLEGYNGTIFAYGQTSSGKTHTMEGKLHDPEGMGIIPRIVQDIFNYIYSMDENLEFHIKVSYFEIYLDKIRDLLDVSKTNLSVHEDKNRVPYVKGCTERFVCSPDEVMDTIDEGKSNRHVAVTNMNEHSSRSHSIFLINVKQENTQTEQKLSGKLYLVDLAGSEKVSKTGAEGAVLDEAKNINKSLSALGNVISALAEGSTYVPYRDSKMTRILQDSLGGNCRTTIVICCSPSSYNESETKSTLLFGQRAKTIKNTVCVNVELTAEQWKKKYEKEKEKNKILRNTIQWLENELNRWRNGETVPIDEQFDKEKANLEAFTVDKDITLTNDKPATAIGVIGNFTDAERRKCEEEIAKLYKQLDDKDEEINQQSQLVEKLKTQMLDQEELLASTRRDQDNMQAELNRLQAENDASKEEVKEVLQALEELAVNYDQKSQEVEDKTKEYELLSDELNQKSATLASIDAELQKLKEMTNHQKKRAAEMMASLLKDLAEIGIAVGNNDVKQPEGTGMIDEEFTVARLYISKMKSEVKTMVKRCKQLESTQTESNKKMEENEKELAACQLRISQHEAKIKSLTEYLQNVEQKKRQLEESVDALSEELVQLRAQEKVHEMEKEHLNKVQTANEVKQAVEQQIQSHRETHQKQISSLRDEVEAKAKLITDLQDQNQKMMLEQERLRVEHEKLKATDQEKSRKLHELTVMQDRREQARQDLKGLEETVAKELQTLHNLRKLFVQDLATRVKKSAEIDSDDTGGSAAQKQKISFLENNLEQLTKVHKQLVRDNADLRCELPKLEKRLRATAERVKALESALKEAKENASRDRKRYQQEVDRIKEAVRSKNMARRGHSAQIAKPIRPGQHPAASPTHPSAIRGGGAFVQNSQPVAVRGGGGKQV

Structure (SMILES)	GI50 [1]	GI50 [2]	GI50 [3]	GI50 [4]	GI50 [5]	GI50 [6]	GI50 [7]	Activity [8]	GI50 [9]	Activity [10]	Activity [11]	Activity [12]	Activity [13]
CC(C)C(c1nc2cc(Cl)ccc2c(=O)n1Cc1ccccc1)N(CCCN)C(=O)c1ccccc1F (racemic)	48.5 nM	17.7 nM	3.1 µM	1900 nM	0.35 µM	1.9 nM	35.6 nM	–	–	–	–	–	–
CC(C)[C@H](c1nc2cc(Cl)ccc2c(=O)n1Cc1ccccc1)N(CCCN)C(=O)c1cccc(F)c1	–	–	–	–	–	–	–	Active	–	–	–	–	–
CC(C)C(c1nc2cc(Cl)ccc2c(=O)n1Cc1ccccc1)N(CCCN)C(=O)c1ccc(F)cc1 (racemic)	1100 nM	4000 nM	4.3 µM	2700 nM	6.3 µM	1100 nM	2700 nM	–	3.1 µM	–	–	–	–
CCOC(=O)C1=C(C)NC(=S)N[C@@H]1c1cccc(O)c1	–	–	–	–	–	–	–	–	–	97.7%	98.3%	97%	98.5%
